Laboratory results from patent EP3685668B1, “COMPOSITION COMPRISING ACIBENZOLAR-S-METHYL AS EFFECTIVE INGREDIENT FOR CONTROLLING BURSAPHELENCHUS XYLOPHILUS DISEASE AND METHOD FOR CONTROLLING BURSAPHELENCHUS XYLOPHILUS USING SAME” (Industry Foundation of Chonnam National University, priority 2017, dated 2019).

How the values were obtained:
Test in all cases: qRT-PCR expression of induced resistance gene in pine tree callus
Format in all cases: cell-based
Conditions in all cases: 200 µg/mℓ, 24 hours
PR_2 family = test system: PR_2 family
Method: (§1) For in vitro analysis of induced resistance, the expression of PR genes and other plant defense-related genes was determined, which are evolved in various defense mechanisms including induced resistance. The primers of sixteen induced resistance-related genes of pine tree used in this invention were listed in the below and elongation factor_1 alpha were used as a reference gene. [Table 4] The primer list of defense resistance-related genes
(§2) After the treatment with 200 µg / mℓ of candidates of the selected induced resistance material, expression of the induced resistance-related gene in pine callus was determined by qRT-PCR using the primer pairs of defense resistance-related genes in Table 4. As a candidate group of an induced resistance material in pine tree, acibenzolar-S-methyl (ASM), TDL (Tiadinil), ITL (Isotianil), PBZ (Probenzole), AZO (Azoxystrobin), VMA (Validamycin A), MeJA (Methyl jasmonate), BABA (DL-3-aminobutyric acid), 2,3-BDO (2,3-Butanediol), GABA (r-Aminobutyric acid), glucan (Glucan), ER (Ergosterol), and AZA (Azelaic acid) were used. For the in vitro analysis of the expression of induced resistance gene in pine callus, the selected induced resistance materials were applied with 500 µℓ of LM liquid medium on a surface of pine tree callus (100 mg) in 12-well microplate to give final concentration of 200 µg/mℓ. Then, the callus surface was sufficiently reacted for 24 hours with the candidate of pine tree induced resistance material by shaking at 50 rpm in a 25 °C shaking incubator under dark condition. RNAs were extracted from the callus after completion of the reaction with an induced resistance material, followed by synthesis of cDNAs. Then, by carrying out qRT-PCR, the expression of induced resistance genes was determined. [Table 5] Expression of induced resistance gene in pine tree callus by TDL, PBZ, ASM, ITL, AZO, VMA, glucan, and AZA
(§3) Based on the results of assay using young plants and gene expression by selected induce resistance materials, it seemed that acibenzolar-S-methyl had the most excellent effect. Thus, the following tests were carried out using acibenzolar-S-methyl only. Expression of the induced resistance genes at different culture time after the chemical treatment was examined. For the in vitro assay, LM medium containing pine tree callus was treated with acibenzolar-S-methyl at concentration of 200 µg / mℓ, followed by reaction for 1 day, 7 days, or 14 days in a 25°C shaking incubator under dark condition. RNAs were extracted from the callus after the reaction followed by synthesis of cDNAs. Then, by carrying out qRT-PCR, the expression of the induced resistance genes was determined. Depending on reaction time after the treatment, i.e., after 1 day, 7 days, or 14 days, the expression of the obtained induced resistance genes was examined. As a result of the in vitro callus assay depending on reaction time after the treatment with acibenzolar-S-methyl, the expression of the induced resistance-related genes is the highest at 1 day after the treatment with acibenzolar-S-methyl and gradually diminished over time, as it is shown in Table 7. In this regard, it is contemplated that the expression of genes acquired by acibenzolar-S-methyl is not maintained in highly expressed state until the pathogen invasion and just memorized with at minimum level so that the energy consumption by plant can be efficiently managed. [Table 7] Expression of induced resistance gene in pine tree callus by acibenzolar-S-methyl depending on reaction time
(§4) To have an in vitro assay according to different methods of treatment with acibenzolar-S-methyl, two separate treatment methods, i.e., surface treatment (spraying treatment) of pine tree callus and direct application of the induced resistance material to an LM medium containing pine tree callus, were performed. […]

PR_9 family = test system: PR_9 family
Method: as §1, §2, §3, §4

PR_10 family = test system: PR_10 family
Method: as §1, §2, §3, §4

PR_1b family = test system: PR_1b family
Method: as §1, §2, §3, §4

Heat shock 70 = test system: Heat shock 70
Method: as §1, §2, §3, §4

Extensin = test system: Extensin
Method: as §1, §2, §3, §4

PR_5 family = test system: PR_5 family
Method: as §1, §2, §3, §4

Xyloglucan = test system: Xyloglucan
Method: as §1, §2, §3, §4

Antipeptide = test system: Antipeptide
Method: as §1, §2, §3, §4

Metallothionein = test system: Metallothionein
Method: as §1, §2, §3, §4

Hydroxyproline = test system: Hydroxyproline
Method: as §1, §2, §3, §4

PR_3 family class 4 = test system: PR_3 family class 4
Method: as §1, §2, §3, §4

PR_4 family = test system: PR_4 family
Method: as §1, §2, §3, §4

PR_3 family class 1 = test system: PR_3 family class 1
Method: as §1, §2, §3, §4

SMILES | Expression of induced resistance gene, PR_2 family (PR_2 family) | Expression of induced resistance gene, PR_9 family (PR_9 family) | Expression of induced resistance gene, PR_10 family (PR_10 family) | Expression of induced resistance gene, PR_1b family (PR_1b family) | Expression of induced resistance gene, Heat shock 70 (Heat shock 70) | Expression of induced resistance gene, Extensin (Extensin) | Expression of induced resistance gene, PR_5 family (PR_5 family) | Expression of induced resistance gene, Xyloglucan (Xyloglucan) | Expression of induced resistance gene, Antipeptide (Antipeptide) | Expression of induced resistance gene, Metallothionein (Metallothionein) | Expression of induced resistance gene, Hydroxyproline (Hydroxyproline) | Expression of induced resistance gene, PR_3 family class 4 (PR_3 family class 4) | Expression of induced resistance gene, PR_4 family (PR_4 family) | Expression of induced resistance gene, PR_3 family class 1 (PR_3 family class 1)
CO/C=C(/C(=O)OC)c1ccccc1Oc1cc(Oc2ccccc2C#N)ncn1 [AZO, Azoxystrobin] | 1.8 | 1.92 | 1.4 | 1.66 | 0.38 | 2.01 | 1.52 | 1.93 | 0.69 | 0.14 | 1.11 | 1.01 | 2.04 | 1.11
N#Cc1ccccc1NC(=O)c1snc(Cl)c1Cl [ITL, Isotianil] | 1.48 | 1.88 | 1 | 1.77 | 0.43 | 1.39 | 0.95 | 0.97 | 0.75 | 0.09 | 0.72 | 0.81 | 1.39 | 0.95
CC(C)[C@@H](C)/C=C/[C@@H](C)[C@H]1CC[C@H]2C3=CC=C4C[C@@H](O)CC[C@]4(C)[C@H]3CC[C@]12C [ER, Ergosterol] | 1.17 | 1.35 | 1.21 | 1.14 | 1.91 | 1.06 | 1.05 | 1.05 | 2.11 | 1.37 | 1.42 | 0.81 | 1.13 | 1.06
C=CCOC1=NS(=O)(=O)c2ccccc21 [PBZ, Probenzole] | 0.46 | 2.52 | 2.08 | 0.26 | 0.73 | 1.62 | 1.99 | 1.41 | 1.11 | 0.25 | 1.21 | 0.74 | 0.46 | 1.04
CC/C=C\CC1C(=O)CCC1CC(=O)OC (centres unmarked) [MeJA, Methyl jasmonate] | 0.47 | 0.47 | 1.34 | 0.5 | 0.69 | 0.93 | 0.95 | 0.44 | 0.43 | 0.21 | 0.53 | 0.79 | 5.86 | 0.54
CC(O)C(C)O (centres unmarked) [2,3-BDO, 2,3-Butanediol] | 1.26 | 1.22 | 0.86 | 4.36 | 1.29 | 1.07 | 1.13 | 1.13 | 1.31 | 2.53 | 0.83 | 0.33 | 1.41 | 2.78
CC(N)CC(=O)O (racemic) [BABA, DL-3-aminobutyric acid] | 0.43 | 0.43 | 1.23 | 0.48 | 0.59 | 0.78 | 0.92 | 0.53 | 0.4 | 1.17 | 0.36 | 0.51 | 7.01 | 0.81
